Read-outs that look alike come from different tables or passages of the source.
Assays:
CYP3A4 = CYP3A4 (Homo sapiens, UniProt P08684); assay: biochemical
[1] = test system: influenza A virus (HA of H5N1, Goose/Qinghai/59/05); assay: microbe, parasite or virus in culture; format: cell-based; details: Influenza A virus
[2] = Hepatic metabolic stability in mouse liver microsomes; details: mouse LM, in the presence of NADPH
PR8-NS1-Gluc virus = assay: microbe, parasite or virus in culture; format: cell-based, influenza A PR8
[3] = Pharmacokinetic analysis of plasma and liver levels in BALB/c mice
[4] = Hepatic metabolic stability in human liver microsomes; details: human LM, in the presence of NADPH
[5] = test system: PR8-PB2-Gluc, influenza A/Puerto Rico/8/1934 (PR8) H1N1 virus; assay: microbe, parasite or virus in culture; format: cell-based; details: Influenza A virus, MDCK, read-out: EC50 (nM), antiviral activity in the infectious IAV
CYP2C9 = CYP2C9 (Homo sapiens, UniProt P11712); assay: biochemical
CYP2C9, sequence (P11712 whole entry): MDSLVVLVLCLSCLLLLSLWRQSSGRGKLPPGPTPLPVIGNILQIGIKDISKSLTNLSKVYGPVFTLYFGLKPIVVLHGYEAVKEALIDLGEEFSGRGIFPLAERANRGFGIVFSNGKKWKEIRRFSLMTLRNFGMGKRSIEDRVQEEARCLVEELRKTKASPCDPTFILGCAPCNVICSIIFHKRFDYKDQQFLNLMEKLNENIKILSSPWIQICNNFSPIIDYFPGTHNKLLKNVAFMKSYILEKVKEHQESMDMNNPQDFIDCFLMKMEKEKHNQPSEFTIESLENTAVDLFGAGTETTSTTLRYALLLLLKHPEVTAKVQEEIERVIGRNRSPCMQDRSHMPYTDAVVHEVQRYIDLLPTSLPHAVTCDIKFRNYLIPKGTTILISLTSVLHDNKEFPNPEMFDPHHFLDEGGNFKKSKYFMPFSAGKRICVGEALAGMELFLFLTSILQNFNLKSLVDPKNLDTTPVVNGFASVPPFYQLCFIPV

[6] = Influenza A virus, PR8, MDCK, 48 h

CYP3A4, sequence (P08684 whole entry): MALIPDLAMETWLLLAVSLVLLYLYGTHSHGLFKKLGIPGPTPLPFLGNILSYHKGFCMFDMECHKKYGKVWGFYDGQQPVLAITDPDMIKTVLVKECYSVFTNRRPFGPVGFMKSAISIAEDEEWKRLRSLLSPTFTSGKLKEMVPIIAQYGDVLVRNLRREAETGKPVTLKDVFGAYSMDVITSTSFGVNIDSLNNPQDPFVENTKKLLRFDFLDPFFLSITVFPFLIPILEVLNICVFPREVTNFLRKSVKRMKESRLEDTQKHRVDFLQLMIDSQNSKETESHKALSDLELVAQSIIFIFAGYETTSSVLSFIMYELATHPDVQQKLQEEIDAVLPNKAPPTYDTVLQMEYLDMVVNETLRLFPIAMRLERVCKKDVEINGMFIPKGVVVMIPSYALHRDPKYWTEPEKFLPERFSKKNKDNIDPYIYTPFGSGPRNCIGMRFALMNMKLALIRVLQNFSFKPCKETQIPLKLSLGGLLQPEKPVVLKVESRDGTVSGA

CC(C)(C)N1CCC(NC(=O)c2ccc(C(F)(F)F)cc2Cl)CC1 [Compound 16, N-(1-(tert-Butyl)piperidin-4-yl)-2-chloro-4-(trifluoromethyl)benzamide]
IC50 (CYP3A4): > 100 µM
inhibition at 12.5 µM ([1]; H5N1, A549, 12.5 μM, read-out: H5N1 pseudotype assay % inhibition at 12.5 μM): 99%
EC50 ([1]; H5N1, A549, read-out: H5N1 pseudotype assay EC50 (μM)): 0.24 ± 0.09 µM
percentage of compound remaining after 60 minutes [2]: 94%
EC30 (PR8-NS1-Gluc virus): 134 nM
EC40 (PR8-NS1-Gluc virus): 160 nM
EC60 (PR8-NS1-Gluc virus): 219 nM
EC70 (PR8-NS1-Gluc virus): 260 nM
EC80 (PR8-NS1-Gluc virus): 321 nM
EC50 (PR8-NS1-Gluc virus; [6]): 187 nM
EC90 (PR8-NS1-Gluc virus; [6]): 439 nM
Cmax ([3]; 5x the dose p.o. (50 mg/kg), plasma): 7641 ng/mL
Cmax p.o. relative to i.p. (fold higher) ([3]; 5x the dose p.o. vs 10 mg/kg i.p., plasma): 7 ×
oral bioavailability ([3]; BALB/c mice, p.o. vs i.p. Cmax): excellent oral bioavailability
Tmax ([3]; BALB/c, mouse, plasma, intraperitoneal, oral): 30 min
AUC(0-8 h) ([3]; i.p. (10 mg/kg), liver): 66400 ng·h/g
T1/2 ([3]; i.p. (10 mg/kg), liver): 2.47 h
Tmax ([3]; i.p. (10 mg/kg), liver): 15 min
AUC(0-8 h) ([3]; i.p. (10 mg/kg), plasma): 3282 ng·h/g
T1/2 ([3]; i.p. (10 mg/kg), plasma): 1.53 h
Tmax ([3]; i.p. (10 mg/kg), plasma): 30 min
AUC(0-8 h) ([3]; p.o. (50 mg/kg), liver): 292000 ng·h/g
T1/2 ([3]; p.o. (50 mg/kg), liver): 2.58 h
Tmax ([3]; p.o. (50 mg/kg), liver): 60 min
AUC(0-8 h) ([3]; p.o. (50 mg/kg), plasma): 23705 ng·h/g
T1/2 ([3]; p.o. (50 mg/kg), plasma): 2.16 h
Tmax ([3]; p.o. (50 mg/kg), plasma): 30 min
Cmax ([3]; read-out: Cmax level in the plasma, 10 mg/kg i.p.): 3.12 µM
percentage of compound remaining after 60 minutes [4]: 97%
EC50 [5]: 72 nM
IC50 (CYP2C9): > 100 µM

Reference: patent publication US11787769B2 (priority 2019, dated 2023)
